Experimental findings from US9962398B2, “Sulfonamide compounds for inhibition of metastatic tumor growth” (Welichem Biotech Inc., priority 2010, dated 2018) are described below.

The target in one test is hCA IX (Homo sapiens (Human), UniProt Q16790).
Another test has as its target hCA XII (Homo sapiens (Human), UniProt O43570). The following applies: read-out: KI (nM) Activity hCAXII; Table 1.
Where [1] appears, read: read-out: KI (nM) Activity hCAIX, Table 1.
Where [2] appears, read: read-out: Ki (nM) hCA IX, Table 2.
Where [3] appears, read: read-out: Ki (nM) hCA IX, Table 3.

Like-named read-outs stand apart in the source and are kept apart here.

Chain of hCA XII (O43570 25-354): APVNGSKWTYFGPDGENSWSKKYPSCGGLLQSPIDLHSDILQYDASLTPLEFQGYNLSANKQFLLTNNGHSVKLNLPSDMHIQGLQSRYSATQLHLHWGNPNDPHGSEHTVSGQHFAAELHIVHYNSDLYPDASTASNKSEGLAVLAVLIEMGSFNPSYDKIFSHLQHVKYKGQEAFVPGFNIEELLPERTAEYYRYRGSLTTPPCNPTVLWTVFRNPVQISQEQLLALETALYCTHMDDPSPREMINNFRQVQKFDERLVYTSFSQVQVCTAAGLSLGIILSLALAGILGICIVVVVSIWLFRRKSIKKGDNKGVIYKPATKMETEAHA

As for `NS(=O)(=O)c1ccc(NC(=O)Nc2ccc(Br)cc2)cc1` [MST-105, 4-({[(4′-Bromophenyl)amino]carbonyl}amino)benzenesulfonamide], the Ki (as a rule, a measure of affinity in units of concentration, obtained from inhibition or displacement) was found to be 69.3 nM on hCA IX (setting [1]) and 7.9 nM at hCA XII.

For the molecule `NS(=O)(=O)c1ccc(NC(=O)Nc2ccc(I)cc2)cc1` [MST-106, 4-{[(4′-Iodophenyl)carbamoyl]amino}benzenesulfonamide], the Ki on hCA IX (setting [1]) worked out at 24.5 nM; at hCA XII, 4.3 nM.

For the molecule `CC(=O)c1ccc(NC(=O)Nc2ccc(S(N)(=O)=O)cc2)cc1` [MST-109, 4-{([(4′-Acetylphenyl)amino]carbonyl)amino}benzenesulfonamide], on hCA XII, the Ki came out at 4.6 nM.

As to `CC(C)c1ccccc1NC(=O)Nc1ccc(S(N)(=O)=O)cc1` [MST-110, 4-{([(2′-Isopropylphenyl)amino]carbonyl)amino}benzenesulfonamide], the figures for the Ki at hCA IX (setting [1]) and on hCA XII were 0.5 nM and 4.2 nM, respectively.

On to `CC(C)c1ccc(NC(=O)Nc2ccc(S(N)(=O)=O)cc2)cc1` [MST-111, 4-{([(4′-Isopropylphenyl)amino]carbonyl)amino}benzenesulfonamide], for which the Ki on hCA IX (setting [1]) amounted to 541 nM; at hCA XII, 49.7 nM.

In the case of `COc1ccc(NC(=O)Nc2ccc(S(N)(=O)=O)cc2)c(C)c1` [MST-120, 4-{([(4′-Methoxy-2′-methylphenyl)amino]carbonyl)amino}benzenesulfonamide], the Ki at hCA XII was found to be 6 nM.

Regarding `NS(=O)(=O)c1ccc(NC(=O)Nc2ccc(Cl)cc2)cc1` [MST-124, 4-{([(4′-chlorophenyl)amino]carbonylamino)}benzenesulfonamide], the Ki at hCA XII turned out to be 5.3 nM.

Take `NS(=O)(=O)c1cccc(NC(=O)Nc2ccc(I)cc2)c1` [MST-128, 3-(3-(4′-Iodophenyl)ureido)benzenesulfonamide]: the Ki on hCA IX (setting [2]) came out at 13.1 nM.

`NS(=O)(=O)c1cccc(NC(=O)Nc2ccc(F)cc2)c1` [MST-129, 3-(3-(4′-Fluorophenyl)ureido)benzenesulfonamide]: at hCA IX (setting [2]), the inhibition constant (Ki) stood at 10.2 nM.

As to `CC(=O)c1ccc(NC(=O)Nc2cccc(S(N)(=O)=O)c2)cc1` [MST-131, 3-(3-(4′-Acetylphenyl)ureido)benzenesulfonamide], the Ki on hCA IX (setting [2]) was determined as 15.1 nM.

Regarding `CC(C)c1ccccc1NC(=O)Nc1cccc(S(N)(=O)=O)c1` [MST-132, 3-(3-(2′-Isopropylphenyl)ureido)benzenesulfonamide], on hCA IX (setting [2]), the Ki is 18.5 nM.

As to `NS(=O)(=O)c1ccc(NC(=O)Nc2ccc(Cl)cc2F)cc1` [MST-134, 4-(3-(4′-chloro-2-fluorophenyl)ureido)benzenesulfonamide], the Ki on hCA IX (setting [3]) is 5.1 nM.

As to `NS(=O)(=O)c1ccc(NC(=O)Nc2cc(F)c(F)cc2F)cc1` [MST-137, 4-(3-(2′,4′,5′-trifluorophenyl)ureido)benzenesulfonamide], the inhibition constant (Ki) on hCA IX (setting [3]) came out at 7.6 nM.

Take `NS(=O)(=O)c1ccc(NC(=O)Nc2cc(C(F)(F)F)ccc2F)cc1` [MST-138, 4-(3-(2′-fluoro-5′-(trifluoromethyl)phenyl)ureido)benzenesulfonamide]: the Ki on hCA IX (setting [3]) stood at 7.4 nM.

As for `NS(=O)(=O)c1ccc(NC(=O)Nc2ccc(F)c(F)c2F)cc1` [MST-140, 4-(3-(2′,3′,4′-trifluorophenyl)ureido)benzenesulfonamide], the Ki on hCA IX (setting [3]) came out at 9.6 nM.

As to `NS(=O)(=O)c1ccc(NC(=O)Nc2ccccc2F)cc1` [MST-141, 4-(3-(2′-fluorophenyl)ureido)benzenesulfonamide], the inhibitory constant (Ki) on hCA IX (setting [3]) amounted to 7.7 nM.

Consider `NS(=O)(=O)c1ccc(NC(=O)Nc2ccc(F)cc2F)cc1` [MST-142, 4-(3-(2′,4′-difluorophenyl)ureido)benzenesulfonamide], for which the Ki on hCA IX (setting [3]) came to 3.7 nM.

Take `NS(=O)(=O)c1ccc(NC(=O)Nc2cc(Cl)ccc2Cl)cc1` [MST-144, 4-(3-(2′,5′-dichlorophenyl)ureido)benzenesulfonamide]: the Ki on hCA IX (setting [3]) stood at 8.9 nM.

Regarding `NS(=O)(=O)c1ccc(NC(=O)Nc2cc([N+](=O)[O-])ccc2Cl)cc1` [MST-145, 4-(3-(2′-Chloro-5-nitrophenyl)ureido)benzenesulfonamide], the Ki on hCA IX (setting [3]) was found to be 8.2 nM.
